Data from patent US4800197A, “Anti-acne composition” (Richardson-Vicks Inc., priority 1987, dated 1989).

Assays:
corneocytes = conditions: C. Huber et al, Arch. Derm. Res. 257, 293-297, 1977; cited from earlier work
[1] = in vitro human skin
Source text: Excised human skin samples are obtained at autopsy and maintained under sterile conditions until used. […] The diffusion cell is composed of two compartments: the lower chamber is made of Plexiglass and the top is made of Teflon. The skin sample is mounted with the stratum corneum side exposed to the air and held on to the Teflon top with a rubber 0-ring; a tight seal between the two compartments is achieved by tightening the set screws. The cell has an effective diffusional area of 5.08 cm^2 and the dermis side of the skin is constantly bathed by filling the receptor compartment with 40 ml of isotonic saline. Adequate mixing of the receptor phase is accomplished with a magnet driven Teflon-coated stir bar moved by appropriate motor means located below the cell bath. The whole diffusion cell assembly is immersed in a water bath maintained at 30° C. using a circulating water bath. […] At hourly intervals over a period of seven hours, a one milliliter sample of the receptor fluid is withdrawn and analyzed for radioactive content by liquid scintillation counting means (Packard Tri-Carb model No. 460). […]
At the end of the seven hour period the skin sample is removed from the diffusion cell, trimmed of excess skin and glued with cyanoacrylate glue to a glass plate. […] Ten successive adhesive tape strippings are then taken and the salicylic acid content per strip determined. […]

| Compound | reduction in intercellular cohesion of the corneocytes (in words) (corneocytes) | deposition of salicylic acid in the stratum corneum (in words) [1] | rate of penetration of salicylic acid (in words) [1] |
| --- | --- | --- | --- |
| O=C(O)c1ccccc1O [Salicylic acid] | causes a reduction in intercellular cohesion of the corneocytes | – | – |
| CCCCCCCCCCCCOS(=O)(=O)[O-].[Na+] [surfactant D, sodium lauryl sulfate] | – | marked decrease in deposition of salicylic acid in the stratum corneum | marked increase in the penetration rate through the skin |
